Test results taken from ChEMBL document CHEMBL4364346, “Structure optimization of a new class of PPARγ antagonists” (Bioorg Med Chem, 2019).
Activity calls are given as the source filed them. The rule behind the calls is not given here.

How the values were obtained:
[1] = molecular target: T1, Peroxisome proliferator-activated receptor alpha (Homo sapiens) (UniProt Q07869); assay: Antagonist activity at recombinant human pFA-CMV fused PPARalpha LBD transfected in HEK293T cells assessed as reduction in GW7647-induced PPARalpha activation at 1 uM incubated for 12 to 14 hrs by dual glo luciferase reporter gene assay; type: cell-based
T1 sequence (whole entry): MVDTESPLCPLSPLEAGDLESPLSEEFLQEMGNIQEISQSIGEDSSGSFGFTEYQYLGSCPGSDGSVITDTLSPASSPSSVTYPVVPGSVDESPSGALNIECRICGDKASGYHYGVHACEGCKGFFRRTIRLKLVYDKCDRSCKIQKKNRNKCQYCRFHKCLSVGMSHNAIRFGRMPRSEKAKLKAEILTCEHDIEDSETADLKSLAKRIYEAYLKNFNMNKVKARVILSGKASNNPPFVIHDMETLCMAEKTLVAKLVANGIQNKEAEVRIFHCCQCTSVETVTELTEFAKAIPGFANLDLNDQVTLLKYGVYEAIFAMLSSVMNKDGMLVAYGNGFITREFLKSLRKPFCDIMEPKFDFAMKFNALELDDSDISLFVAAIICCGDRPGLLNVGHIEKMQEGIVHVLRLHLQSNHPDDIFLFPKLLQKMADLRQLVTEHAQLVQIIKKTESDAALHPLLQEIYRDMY

[2] = molecular target: T2, Bile acid receptor (Homo sapiens) (UniProt Q96RI1); assay: Antagonist activity at recombinant human pFA-CMV fused FXR LBD transfected in HEK293T cells assessed as reduction in GW4064-induced FXR activation at 1 uM incubated for 12 to 14 hrs by dual glo luciferase reporter gene assay; type: cell-based
T2 sequence (whole entry): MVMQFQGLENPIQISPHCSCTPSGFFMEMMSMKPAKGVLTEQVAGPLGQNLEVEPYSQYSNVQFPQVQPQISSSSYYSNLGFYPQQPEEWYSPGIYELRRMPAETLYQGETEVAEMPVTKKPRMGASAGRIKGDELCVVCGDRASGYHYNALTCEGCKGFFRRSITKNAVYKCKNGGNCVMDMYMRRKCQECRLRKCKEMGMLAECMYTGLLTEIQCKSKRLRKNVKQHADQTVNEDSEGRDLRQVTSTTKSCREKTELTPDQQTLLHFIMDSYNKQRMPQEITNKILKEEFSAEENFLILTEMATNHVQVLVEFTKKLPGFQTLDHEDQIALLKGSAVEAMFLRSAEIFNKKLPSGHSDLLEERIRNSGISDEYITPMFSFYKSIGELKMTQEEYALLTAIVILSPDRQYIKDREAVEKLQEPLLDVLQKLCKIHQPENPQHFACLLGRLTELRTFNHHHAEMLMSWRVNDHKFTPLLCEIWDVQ

[3] = molecular target: T3, Peroxisome proliferator-activated receptor gamma (Homo sapiens, UniProt P37231); assay: Antagonist actvity in sGFP-tagged PPARgamma LBD (unknown origin) assessed as inhibition of rosiglitazone-induced PPARgamma activation incubated for 1 hr in presence of CBP-1 cofactor peptide by HTRF based cofactor recruitment assay
T3 sequence (P37231 whole entry): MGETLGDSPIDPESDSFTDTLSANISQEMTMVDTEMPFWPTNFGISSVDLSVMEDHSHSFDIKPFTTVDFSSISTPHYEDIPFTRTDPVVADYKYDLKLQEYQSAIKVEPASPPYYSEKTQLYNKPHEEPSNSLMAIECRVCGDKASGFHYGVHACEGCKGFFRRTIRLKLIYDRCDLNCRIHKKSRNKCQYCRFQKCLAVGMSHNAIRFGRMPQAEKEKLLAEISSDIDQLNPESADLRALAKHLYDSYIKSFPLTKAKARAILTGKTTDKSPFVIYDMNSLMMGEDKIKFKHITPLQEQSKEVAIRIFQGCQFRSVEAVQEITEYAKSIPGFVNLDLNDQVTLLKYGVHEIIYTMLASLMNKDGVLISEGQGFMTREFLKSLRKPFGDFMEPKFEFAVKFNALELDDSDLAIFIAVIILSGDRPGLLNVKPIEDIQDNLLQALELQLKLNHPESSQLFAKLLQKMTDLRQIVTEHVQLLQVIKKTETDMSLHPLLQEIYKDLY

[4] = molecular target: Oxysterols receptor LXR-alpha (Homo sapiens) (UniProt Q13133); assay: Agonist activity at recombinant human pFA-CMV fused LXRalpha LBD transfected in HEK293T cells assessed as LXRalpha activation at 1 uM incubated for 12 to 14 hrs by dual glo luciferase reporter gene assay
[5] = molecular target: T4, Peroxisome proliferator-activated receptor delta (Homo sapiens) (UniProt Q03181); assay: Antagonist activity at recombinant human pFA-CMV fused PPARdelta LBD transfected in HEK293T cells assessed as reduction in L165041-induced PPARdelta activation at 1 uM incubated for 12 to 14 hrs by dual glo luciferase reporter gene assay; type: cell-based
T4 sequence (whole entry): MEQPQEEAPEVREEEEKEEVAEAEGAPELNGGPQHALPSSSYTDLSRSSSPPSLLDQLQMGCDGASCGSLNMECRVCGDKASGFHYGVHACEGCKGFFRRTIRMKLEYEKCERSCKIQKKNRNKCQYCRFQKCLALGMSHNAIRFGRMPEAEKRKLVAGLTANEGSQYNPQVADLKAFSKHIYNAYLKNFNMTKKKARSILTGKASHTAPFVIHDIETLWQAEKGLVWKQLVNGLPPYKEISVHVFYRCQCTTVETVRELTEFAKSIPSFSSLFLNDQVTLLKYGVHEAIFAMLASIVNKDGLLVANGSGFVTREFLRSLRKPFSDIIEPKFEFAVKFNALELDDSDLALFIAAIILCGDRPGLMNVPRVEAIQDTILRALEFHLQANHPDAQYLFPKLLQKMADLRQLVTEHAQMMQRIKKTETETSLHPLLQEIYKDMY

Sequence of Oxysterols receptor LXR-alpha (Homo sapiens) (Q13133 whole entry, looked up, the tested form may be a part): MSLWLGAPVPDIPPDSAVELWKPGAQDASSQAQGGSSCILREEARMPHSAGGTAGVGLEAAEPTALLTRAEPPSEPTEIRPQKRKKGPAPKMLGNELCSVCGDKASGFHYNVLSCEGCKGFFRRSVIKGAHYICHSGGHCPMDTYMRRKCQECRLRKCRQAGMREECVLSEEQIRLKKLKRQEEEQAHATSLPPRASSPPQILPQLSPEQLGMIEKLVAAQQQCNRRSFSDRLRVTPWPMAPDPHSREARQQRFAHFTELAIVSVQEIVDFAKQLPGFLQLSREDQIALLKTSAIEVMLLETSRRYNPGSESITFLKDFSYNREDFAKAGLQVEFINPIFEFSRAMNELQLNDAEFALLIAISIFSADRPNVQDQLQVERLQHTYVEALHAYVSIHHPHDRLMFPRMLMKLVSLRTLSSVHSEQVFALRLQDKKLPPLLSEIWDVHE

SMILES	Activity [1]	Activity [2]	IC50 [3]	Activity [4]	Activity [5]
CCC/C(=C\c1cc(OCc2ccc3nc(C(F)(F)F)cc(OC)c3c2)ccc1OCCN1CCN(C)CC1)C(=O)O	inactive	inactive	6.4 µM	inactive	inactive
CCC/C(=C\c1cc(OCc2ccc3nc(C(F)(F)F)cc(OC)c3c2)ccc1OCC1CCN(C)CC1)C(=O)O	inactive	inactive	–	inactive	inactive
